Here are results for two molecules from patent publication US8377485B2, “Antimicrobial composition and use thereof” (Oligo Basics Industria e Comercio de Racao Ltda, priority 2007, dated 2013).

The subject of assay [1] is bacteria. In words: Determination of sensitivity of bacteria (Table 8). As to conditions: product at 50, 40, 30 ppm (columns 10-12). It is filed as cell-based. The procedure: (§1) The purpose was to determine the antimicrobial action of a combination of cashew nut liquid and ricinoleic acid, and the effects on yeast (Saccharomyces cerevisiae) during alcoholic fermentation, response to different dosages and under acidic conditions. The items below were evaluated: • Laboratory fermentation with Saccharomyces cerevisiae by evaluating the feasibility and growth of yeast, in addition to bacteria developed at different concentrations of the products and mixtures; • Evaluation of the deflocculation power of yeast in fermentations at several dosages of the products and mixtures; • Evaluation of different dosages in the test for Sensitivity of Bacteria to define the quantity of products and mixtures to be recommended in the fermentation process by comparing them to other antibiotics previously tested and approved being used in the current market; • Identification of the characteristics of products and mixtures during the handling; • Evaluation of products and mixtures at low pH by simulating the conventional treatment of the yeast milk. The studies were based on the cause vs. effect methodology, using the observation of the growth of microorganisms as a parameter for responses. […]

For assay [2], the system named is bacteria. In words: Determination of sensitivity of bacteria (Table 9). It is filed as cell-based. As to conditions: product at 30 ppm (column 12; columns 11-14 also Free Bacter 3 ppm, Prevent 5 and 3 ppm). On the procedure:
as §1

Assay [3] relates to Eimeria tenella, Eimeria maxima, and Eimeria acervulina. The assay can be described thus: Performance of chickens inoculated with Eimeria oocysts, first to 40th day of age (Example 2). As to conditions: salinomycin 66 ppm, AC 1500 ppm, inoculated at 18th day. It is filed as in vivo. From the text:
(§2) Seven hundred and twenty chickens were randomly distributed into four treatments with six repetitions each, with 30 animals in each repetition. The birds were placed in a conventional yard divided into boxes.
(§3) The four treatments were (1. Non-inoculated, without anticoccidial; 2. Inoculated without anticoccidial; 3. Inoculated-salinomycin (66 ppm); 4. inoculated-AC (1500 ppm)). The birds were inoculated at the 18th day of age with 0.5 liter of inocula containing 10,000, 9,000, and 8,000 sporulated oocysts of Eimeria tenella, Eimeria maxima, and Eimeria acervulina, respectively. This solution was mixed with the feed and offered to each group of 30 birds. At the 24th day of age, the degree of intestinal lesion was evaluated (0—no lesion, 4—maximum lesion). The AC composition was 12% castor oil, 40% cashew nut liquid, and 48% carrier.
(§4) The experimental design utilized seven hundred and twenty chickens which were randomly distributed into four treatments and six repetitions. The averages were compared using the SNK test (Student-Newman-Keuls).

A further assay relates to E. maxima. The assay can be described thus: Degree of intestinal lesion in inoculated chickens, E. maxima (Example 2). The class given is in vivo. As to conditions: 24th day of age; 0 no lesion, 4 maximum lesion; salinomycin 66 ppm, AC 1500 ppm.
Description: as §2, §3, §4

The next assay relates to E. acervulina. The assay can be described thus: Degree of intestinal lesion in inoculated chickens, E. acervulina (Example 2). As to conditions: 24th day of age; 0 no lesion, 4 maximum lesion; salinomycin 66 ppm, AC 1500 ppm. It is filed as in vivo.
Description: as §2, §3, §4

The next assay deals with E. tenella. The assay can be described thus: Degree of intestinal lesion in inoculated chickens, E. tenella (Example 2). As to conditions: 24th day of age; 0 no lesion, 4 maximum lesion; salinomycin 66 ppm, AC 1500 ppm. The class given is in vivo.
Description: as §2, §3, §4

In the case of `CCCCCC[C@@H](O)C/C=C\CCCCCCCC(=O)O` [Product P2, Ricinoleic Acid], the “Performance in sensitivity of bacteria test” value with bacteria [1] and with bacteria [2] was “negative results” throughout.

`CC[C@@H](C(=O)[C@@H](C)[C@@H](O)[C@H](C)[C@@H]1O[C@@H]([C@@H](CC)C(=O)O)CC[C@@H]1C)[C@H]1O[C@]2(C=C[C@@H](O)[C@]3(CC[C@@](C)([C@H]4CC[C@](O)(CC)[C@H](C)O4)O3)O2)[C@H](C)C[C@@H]1C` [salinomycin] had a Final weight in assay [3] (40th day of age) of 2305 b g. Further, in assay [3] (first to 40th day of age), the Alimentary conversion was determined as 1.78 a, the Ingestion amounted to 4018 bc g, the Viability came out at 97.5 a and the Weight gain turned out to be 2261 b g. Moreover, in the assay on E. maxima, the “Degree of intestinal lesion, E. maxima” value is 0.72 a. In the assay on E. acervulina, the “Degree of intestinal lesion, E. acervulina” value was 0.72 b. Besides, in the assay with E. tenella, the “Degree of intestinal lesion, E. tenella” value is reported as 1.61 a.
